Data: PubChem BioAssay (NCI)
“And” between values parts separate entries of the source, which are not always exact repeats. Identical values can stand only once.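 A five-concentration, 48-hour dose response in 96-well plates underlies each endpoint, interpolated linearly between surrounding concentrations. Abbreviation: GI50, concentration required for 50% inhibition of growth. TGI marks complete inhibition of growth.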

Legend:
Experiment in all cases: growth of human tumour cells (NCI), 48 h
[1] = system: EKVX NSCLC
[2] = system: CCRF-CEM leukemia
[3] = system: SNB-19 CNS
[4] = system: HT29 colon
[5] = system: HCT-15 colon
[6] = system: SN12C renal
[7] = system: SF-539 CNS
[8] = system: HS 578T breast
[9] = system: MDA-N
[10] = system: SF-268 CNS
[11] = system: HL-60(TB) leukemia
[12] = system: NCI-H522 lung
[13] = system: HOP-62 NSCLC
[14] = system: UACC-62 melanoma
[15] = system: BT-549 breast
[16] = system: IGROV1 ovarian
[17] = system: MALME-3M melanoma
[18] = system: DU-145 prostate
[19] = system: MDA-MB-435
[20] = system: A549 NSCLC
[21] = system: SK-MEL-28 melanoma
[22] = system: RPMI-8226 leukemia
[23] = system: LOX IMVI melanoma
[24] = system: SF-295 CNS
[25] = system: UO-31 renal
[26] = system: MCF7 breast
[27] = system: SW-620 colon
[28] = system: ACHN renal
[29] = system: A498 renal
[30] = system: SK-MEL-2 melanoma
[31] = system: NCI-H460 lung
[32] = system: MOLT-4 leukemia
[33] = system: NCI-H23 lung
[34] = system: T-47D breast
[35] = system: OVCAR-5 ovarian
[36] = system: M14 melanoma
[37] = system: SK-MEL-5 melanoma
[38] = system: OVCAR-3 ovarian
[39] = system: HCC-2998 colon
[40] = system: UACC-257 melanoma
[41] = system: MDA-MB-231 breast
[42] = system: 786-0 renal
[43] = system: RXF 393 renal
[44] = system: OVCAR-8 ovarian
[45] = system: U251 CNS
[46] = system: HCT-116 colon
[47] = system: CAKI-1 renal
[48] = system: PC-3 prostate
[49] = system: KM12 colon
[50] = system: OVCAR-4 ovarian
[51] = system: HOP-92 NSCLC
[52] = system: K-562 leukemia
[53] = system: COLO 205 colon
[54] = system: SK-OV-3 ovarian
[55] = system: SNB-75 CNS
[56] = system: TK-10 renal
[57] = system: NCI/ADR-RES ovarian
[58] = system: NCI-H226 lung
[59] = system: SR leukemia

With Cc1c(NC2(C)C(=O)N(/N=C/c3ccccc3)N=C2c2ccccc2)n[nH]c1-c1ccccc1 (stereo not given) the TGI [1] was > 100 µM, the TGI [2] was > 100 µM and the TGI [3] was > 100 µM. The TGI [4] was > 100 µM, the TGI [5] was > 100 µM and the TGI [6] was > 100 µM. The TGI [7] was > 100 µM, the TGI [8] was > 100 µM and the TGI [9] was > 100 µM. The TGI [10] was > 100 µM, the TGI [11] was > 100 µM and the TGI [12] was > 100 µM. For the same compound, the TGI [13] was > 100 µM, the TGI [14] was > 100 µM and the TGI [15] was > 100 µM. The TGI [16] was > 100 µM, the TGI [17] was > 100 µM and the TGI [18] was > 100 µM. The TGI [19] was > 100 µM, the TGI [20] was > 100 µM and the TGI [21] was > 100 µM. The TGI [22] was > 100 µM, the TGI [23] was > 100 µM and the TGI [24] was > 100 µM. For the same compound, the TGI [25] was > 100 µM, the TGI [26] was > 100 µM and the TGI [27] was > 100 µM. The TGI [28] was > 100 µM, the TGI [29] was > 100 µM and the TGI [30] was > 100 µM. For the same compound, the TGI [31] was > 100 µM, the TGI [32] was > 100 µM and the TGI [33] was > 100 µM. For the same compound, the TGI [34] was > 100 µM, the TGI [35] was > 100 µM and the TGI [36] was > 100 µM. For the same compound, the TGI [37] was > 100 µM, the TGI [38] was > 100 µM and the TGI [39] was > 100 µM. For the same compound, the TGI [40] was > 100 µM, the TGI [41] was > 100 µM and the TGI [42] was > 100 µM. The TGI [43] was > 100 µM, the TGI [44] was > 100 µM and the TGI [45] was > 100 µM. For the same compound, the TGI [46] was > 100 µM, the TGI [47] was > 100 µM and the TGI [48] was > 100 µM. The TGI [49] was > 100 µM, the TGI [50] was > 100 µM and the TGI [51] was > 100 µM. The TGI [52] was > 100 µM, the TGI [53] was > 100 µM and the TGI [54] was > 100 µM. The TGI [55] was > 100 µM, the TGI [56] was > 100 µM and the TGI [57] was > 100 µM. The TGI [58] was > 100 µM.
With O=c1[nH]c(N/N=C\C(O)C(O)C(O)CO)nc2ccccc12 (stereo not given) the TGI [1] was > 100 µM, the TGI [2] was > 100 µM and the TGI [3] was > 100 µM. For the same compound, the TGI [4] was > 100 µM, the TGI [5] was > 100 µM and the TGI [6] was > 100 µM. For the same compound, the TGI [7] was > 100 µM, the TGI [8] was > 100 µM and the TGI [9] was > 100 µM. For the same compound, the TGI [10] was > 100 µM, the TGI [11] was > 100 µM and the TGI [13] was > 100 µM. The TGI [14] was > 100 µM, the TGI [15] was > 100 µM and the TGI [16] was > 100 µM. For the same compound, the TGI [18] was > 100 µM, the TGI [19] was > 100 µM and the TGI [20] was > 100 µM. The TGI [21] was > 100 µM, the TGI [22] was > 100 µM and the TGI [23] was > 100 µM. The TGI [24] was > 100 µM, the TGI [25] was > 100 µM and the TGI [26] was > 100 µM. For the same compound, the TGI [27] was > 100 µM, the TGI [28] was > 100 µM and the TGI [59] was > 100 µM. The TGI [29] was > 100 µM, the TGI [30] was > 100 µM and the TGI [31] was > 100 µM. The TGI [32] was > 100 µM, the TGI [33] was > 100 µM and the TGI [34] was > 100 µM. For the same compound, the TGI [35] was > 100 µM, the TGI [36] was > 100 µM and the TGI [37] was > 100 µM. The TGI [38] was > 100 µM, the TGI [40] was > 100 µM and the GI50 [41] was > 100 µM and 47.7 µM. The TGI [41] was > 100 µM, the TGI [42] was > 100 µM and the TGI [44] was > 100 µM. For the same compound, the TGI [45] was > 100 µM, the TGI [46] was > 100 µM and the TGI [47] was > 100 µM. The TGI [48] was > 100 µM, the TGI [49] was > 100 µM and the TGI [51] was > 100 µM. For the same compound, the TGI [52] was > 100 µM, the TGI [53] was > 100 µM and the TGI [54] was > 100 µM. For the same compound, the TGI [55] was > 100 µM, the TGI [56] was > 100 µM and the TGI [57] was > 100 µM. For the same compound, the TGI [58] was > 100 µM.
In the case of Cc1sc2ccccc2[n+]1CCC(=O)O, the TGI [1] is reported as > 100 µM, the TGI [3] is reported as > 100 µM and the TGI [4] is reported as > 100 µM. The TGI [5] was > 100 µM, the TGI [6] was > 100 µM and the TGI [7] was > 100 µM. The TGI [8] was > 100 µM, the TGI [9] was > 100 µM and the TGI [10] was > 100 µM. The TGI [11] was 29.8 µM, the TGI [12] was > 100 µM and the TGI [13] was > 100 µM. For the same compound, the TGI [14] was > 100 µM, the TGI [15] was > 100 µM and the TGI [16] was > 100 µM. The TGI [17] was > 100 µM, the TGI [18] was > 100 µM and the TGI [19] was > 100 µM. The TGI [20] was > 100 µM, the TGI [21] was > 100 µM and the TGI [22] was > 100 µM. For the same compound, the TGI [23] was > 100 µM, the TGI [24] was > 100 µM and the TGI [26] was > 100 µM. The TGI [27] was > 100 µM, the TGI [28] was > 100 µM and the TGI [29] was > 100 µM. The TGI [30] was > 100 µM, the TGI [31] was > 100 µM and the TGI [33] was > 100 µM. For the same compound, the TGI [34] was > 100 µM, the TGI [35] was > 100 µM and the TGI [36] was > 100 µM. The TGI [37] was > 100 µM, the TGI [38] was > 100 µM and the TGI [40] was > 100 µM. For the same compound, the TGI [41] was > 100 µM, the TGI [42] was > 100 µM and the TGI [43] was > 100 µM. The TGI [44] was > 100 µM, the TGI [45] was > 100 µM and the TGI [46] was > 100 µM. The TGI [47] was > 100 µM, the TGI [48] was > 100 µM and the TGI [49] was > 100 µM. For the same compound, the TGI [50] was > 100 µM, the TGI [51] was > 100 µM and the TGI [52] was > 100 µM. The TGI [53] was > 100 µM, the TGI [54] was > 100 µM and the TGI [55] was > 100 µM. The TGI [56] was > 100 µM, the TGI [57] was > 100 µM and the TGI [58] was > 100 µM.
CNC(=S)N/N=C/c1ccc([N+](=O)[O-])s1 was tested, and the TGI [1] was > 10 µM, the TGI [2] was > 10 µM and the TGI [3] was > 10 µM. The TGI [4] was > 10 µM, the TGI [5] was > 10 µM and the TGI [6] was > 10 µM. The TGI [7] was > 10 µM, the TGI [8] was > 10 µM and the TGI [9] was > 10 µM. The TGI [10] was > 10 µM, the TGI [11] was > 10 µM and the TGI [12] was > 10 µM. The TGI [13] was > 10 µM, the TGI [14] was > 10 µM and the TGI [15] was > 10 µM. For the same compound, the TGI [16] was > 10 µM, the TGI [17] was > 10 µM and the TGI [18] was > 10 µM. For the same compound, the TGI [19] was > 10 µM, the TGI [20] was > 10 µM and the TGI [21] was > 10 µM. For the same compound, the TGI [22] was > 10 µM, the TGI [23] was > 10 µM and the TGI [24] was > 10 µM. The TGI [25] was > 10 µM, the TGI [27] was > 10 µM and the TGI [28] was > 10 µM. For the same compound, the TGI [59] was > 10 µM, the TGI [29] was > 10 µM and the TGI [30] was > 10 µM. For the same compound, the TGI [31] was > 10 µM, the TGI [32] was > 10 µM and the TGI [33] was > 10 µM. The TGI [34] was > 10 µM, the TGI [35] was > 10 µM and the TGI [36] was > 10 µM. The TGI [37] was > 10 µM, the TGI [38] was 7.24 µM and the TGI [39] was > 10 µM. For the same compound, the TGI [40] was > 10 µM, the TGI [41] was > 10 µM and the TGI [42] was > 10 µM. For the same compound, the TGI [43] was > 10 µM, the TGI [44] was > 10 µM and the TGI [45] was > 10 µM. For the same compound, the TGI [46] was > 10 µM, the TGI [47] was > 10 µM and the TGI [48] was > 10 µM. For the same compound, the TGI [49] was > 10 µM, the TGI [50] was > 10 µM and the TGI [51] was > 10 µM. For the same compound, the TGI [52] was > 10 µM, the TGI [53] was 8.55 µM and the TGI [54] was > 10 µM. The TGI [55] was > 10 µM, the TGI [56] was > 10 µM and the TGI [57] was > 10 µM. For the same compound, the TGI [58] was > 10 µM.
